Like-named read-outs stand apart in the source and are kept apart here. Marks after values point to notes of the source that are not given here.
Legend:
[1] = target: T1, human GAL1 receptor (Homo sapiens, UniProt P47211); test: Radioligand binding at cloned human GAL1 receptor; conditions: pyrimidines, Tables 1-3, read-out: Ki (nM) GalR1
T1 construct: expressed in transfected cells
T1 sequence (P47211 1-349): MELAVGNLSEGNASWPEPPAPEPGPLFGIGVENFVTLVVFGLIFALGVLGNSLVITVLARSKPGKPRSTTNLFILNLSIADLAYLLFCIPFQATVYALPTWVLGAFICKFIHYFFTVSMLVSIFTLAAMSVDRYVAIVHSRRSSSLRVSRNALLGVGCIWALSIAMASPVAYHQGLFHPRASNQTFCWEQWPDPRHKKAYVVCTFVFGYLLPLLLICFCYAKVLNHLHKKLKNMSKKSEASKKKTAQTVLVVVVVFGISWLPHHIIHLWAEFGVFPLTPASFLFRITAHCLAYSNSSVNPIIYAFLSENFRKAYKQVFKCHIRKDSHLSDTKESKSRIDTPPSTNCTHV
Protocol: (§1) The present invention provides for a method of determining the binding affinity of a GAL3 antagonist, wherein the GAL3 antagonist is dissolved in a “suitable solvent”. A “suitable solvent” means one which permits the measurement of binding affinity of the GAL3 antagonist to the human GAL3 receptor at concentrations less than 1 μM, preferably less than 100 nM. Examples of solvents include, but are not limited to, DMSO, ethanol, N,N-dimethylacetamide, or water. For indolones, the preferred solvent is 3% DMSO (final concentration in the assay). For pyrimidines, the preferred solvent is 1% ethanol/0.09% polypuronic acid F-127 (final concentration in the assay). For any other type of compounds, the preferred solvent is the solvent which permits the measurement of binding affinity of a GAL3 antagonist at the lowest concentration. Once a suitable solvent is ascertained for the binding assay of the human GAL3 receptor, the same solvent is used in assays to determine the binding affinity for instance, at the GAL1 receptor.
(§2) The binding properties of the pyrimidines of the present invention were evaluated at the cloned human galanin receptors, GAL1, GAL2, and GAL3, using protocols described herein.
(§3) The binding properties of the indolones of the present invention were evaluated at the cloned human galanin receptors, GAL1, GAL2, and GAL3, using protocols described herein.
(§4) LM(tk-) cells were stably transfected with the human GAL1 or GAL3 receptor. CHO cells were stably transfected with the human GAL2 receptor.
(§5) cDNAs for the human and rat GAL1, and human and rat GAL3 receptors were transfected with a G-418 resistant gene into the mouse fibroblast LM(tk-) cell line by a calcium phosphate transfection method (Cullen, 1967). Stably transfected cells were selected with G-418. Human and rat GAL2 receptors were similarly transfected into CHO cells.
(§6) Membranes were harvested from stably transfected LM(tk-) cells. Adherent cells were washed twice in ice-cold phosphate buffered saline (138 mM NaCl, 8.1 mM Na2HPO4, 2.5 mM KCl, 1.2 mM KH2PO4, 0.9 mM CaCl2, 0.5 mM MgCl2, pH 7.4) and lysed by sonication in ice-cold sonication buffer (20 mM Tris-HCl, 5 mM EDTA, pH 7.7). Large particles and debris were cleared by low speed centrifugation (200×g, 5 min, 4° C.). Membranes were collected from the supernatant fraction by centrifugation (32,000×g, 18 min, 4° C.), washed with ice-cold hypotonic buffer, and collected again by centrifugation (32,000×g, 18 min, 4° C.). The final membrane pellet was resuspended by sonication into a small volume of ice-cold binding buffer (−1 ml for every 5 plates: 10 mM NaCl, 20 mM HEPES, 0.22 mM KH2PO4, 1.26 mM CaCl2, 0.81 mM MgSO4, pH 7.4). Protein concentration was measured by the Bradford method (Bradford, 1976) using Bio-Rad Reagent, with bovine serum albumin as a standard. Membranes were held on ice for up to one hour and used fresh, or flash frozen and stored in liquid nitrogen. Membranes were prepared similarly from CHO cells.
(§7) Galanin Receptors: Binding assays were performed according to the following published methods: human GAL3 (PCT International Publication No. WO 98/15570), human GAL1 (PCT International Publication No. WO 95/2260) human GAL2 (PCT International Publication No. WO 97/26853).
(§8) Binding data were analyzed using nonlinear regression and statistical techniques available in the GraphPAD Prism package (San Diego, Calif.). Enzymatic assay data were derived from a standard curve of reference compound data.

[2] = target: T2, human GAL2 receptor (Homo sapiens, UniProt O43603); test: Radioligand binding at cloned human GAL2 receptor; conditions: pyrimidines, Tables 1-3, read-out: Ki (nM) GalR2
T2 construct: expressed in transfected cells
T2 sequence (O43603 1-387): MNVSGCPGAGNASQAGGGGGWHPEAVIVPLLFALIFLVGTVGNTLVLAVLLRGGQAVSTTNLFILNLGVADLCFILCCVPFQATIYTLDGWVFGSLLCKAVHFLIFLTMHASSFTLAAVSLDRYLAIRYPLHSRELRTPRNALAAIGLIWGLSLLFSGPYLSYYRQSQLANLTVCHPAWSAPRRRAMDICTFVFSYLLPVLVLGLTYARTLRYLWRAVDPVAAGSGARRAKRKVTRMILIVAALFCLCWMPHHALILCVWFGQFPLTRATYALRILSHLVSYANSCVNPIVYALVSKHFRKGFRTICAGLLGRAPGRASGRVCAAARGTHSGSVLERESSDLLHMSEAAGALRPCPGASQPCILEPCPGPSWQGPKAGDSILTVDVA
Protocol: as §1, §2, §3, §4, §5, §6, §7, §8

[3] = target: T3, human GAL3 receptor (Homo sapiens, UniProt O60755); test: Radioligand binding at cloned human GAL3 receptor; conditions: cloned human GAL3 receptor
T3 construct: expressed in transfected cells
T3 sequence (O60755 1-368): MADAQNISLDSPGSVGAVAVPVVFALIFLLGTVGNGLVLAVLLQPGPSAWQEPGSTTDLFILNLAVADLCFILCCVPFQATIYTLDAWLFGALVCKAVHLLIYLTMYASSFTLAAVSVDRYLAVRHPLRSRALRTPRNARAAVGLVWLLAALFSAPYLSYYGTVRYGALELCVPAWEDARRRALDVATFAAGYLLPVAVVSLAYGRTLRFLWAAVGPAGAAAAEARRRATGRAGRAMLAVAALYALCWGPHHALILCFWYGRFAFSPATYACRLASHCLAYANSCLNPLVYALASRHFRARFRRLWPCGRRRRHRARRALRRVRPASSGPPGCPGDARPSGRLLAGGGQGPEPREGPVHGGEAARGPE
Protocol: as §1, §2, §3, §4, §5, §6, §7, §8

[4] = test system: Male albino Sprague-Dawley rats; test: Rat Social Interaction Test (SIT); format: in vivo
Protocol: Rats were allowed to acclimate to the animal care facility for 5 days and were housed singly for 5 days prior to testing. Animals were handled for 5 minutes per day. The design and procedure for the Social Interaction Test was carried out as previously described by Kennett, et al. (1997). On the test day, weight matched pairs of rats (±5%), unfamiliar to each other, were given identical treatments and returned to their home cages. Animals were randomly divided into 5 treatment groups, with 5 pairs per group, and were given one of the following i.p. treatments: Example 92 (10, 30 or 100 mg/kg), vehicle (1 ml/kg) or chlordiazepoxide (5 mg/kg). Dosing was 1 hour prior to testing. Rats were subsequently placed in a white perspex test box or arena (54×37×26 cm), whose floor was divided up into 24 equal squares, for 15 minutes. An air conditioner was used to generate background noise and to keep the room at approximately 74° F. All sessions were videotaped using a JVC camcorder (model GR-SZ1, Elmwood Park, N.J.) with either TDK (HG ultimate brand) or Sony 30 minute videocassettes. All sessions were conducted between 1:00-4:30 P.M. Active social interaction, defined as grooming, sniffing, biting, boxing, wrestling, following and crawling over or under, was scored using a stopwatch (Sportsline model no. 226, 1/100 sec. discriminability). The number of episodes of rearing (animal completely raises up its body on its hind limbs), grooming (licking, biting, scratching of body), and face washing (i.e. hands are moved repeatedly over face), and number of squares crossed were scored. Passive social interaction (animals are lying beside or on top of each other) was not scored. All behaviors were assessed later by an observer who was blind as to the treatment of each pair. At the end.of each test, the box was thoroughly wiped with moistened paper towels.
Male albino Sprague-Dawley rats (Taconic Farms, N.Y.) were housed in pairs under a 12 hr light dark cycle (lights on at 0700 hrs.) with free access to food and water.
Example 92 was dissolved in 100% DMSO (Sigma Chemical Co., St. Louis, Mo.). Chlordiazepoxide (purchased from Sigma Chemical Co., St. Louis, Mo.) was dissolved in double distilled water. The vehicle consisted of 50% DMSO (v/v). All drug solutions were made up 10 minutes prior to injection and the solutions were discarded.
Example 34 was dissolved in 5% lactic acid, v/v. The vehicle consisted of 100% dimethylacetamide (DMA) and this was used to make up all drug solutions. All drug solutions were made up fresh each day and any unused solutions were discarded at the end of the test day. The volume of drug solution administered was 1 ml/kg.
The social interaction data (time interacting, rearing and squares crossed) were subjected to a randomized, one-way ANOVA and post hoc tests conducted using the Student-Newman-Keuls test. The data were subjected to a test of normality (Shapiro-Wilk test). The data were analyzed using the GBSTAT program, version 6.5 (Dynamics Microsystems, Inc., Silver Spring, Md., 1997). All data are presented as means ±S.E.M.

[5] = pyrimidines, Tables 1-3, read-out: Ki (nM) GalR3
[6] = indolones, Table 4a, read-out: Ki (nM) Gal3
[7] = pyrimidines, Table 3a, read-out: Ki (nM) Gal3

**Q.** `CN(CCc1c[nH]c2ccccc12)c1nc(NCCc2ccccc2)cc(N2CCCCC2)n1` [Example 12] was tested. Which Ki [1] did it give?
**A.** > 5000 nM

**Q.** And the Ki [2]?
**A.** 2000 nM

**Q.** And the Ki [3, 5]?
**A.** 322 nM

**Q.** How did the “Social Interaction (sec)” value ([4]; 5 mg/kg i.p., 1 hour before 15 min test, unfamiliar rats) turn out when `CNC1=Nc2ccc(Cl)cc2C(c2ccccc2)=[N+]([O-])C1` [Chlordiazepoxide, chlordiazepoxide, reference compound] was run?
**A.** 188 ± 15^b sec

**Q.** And the “Social Interaction (sec)” value ([4]; 5 mg/kg p.o., one hour before test, unfamiliar cage mates in a familiar arena)?
**A.** 122 ± 18^$ sec

**Q.** For “N^2-[2-(1H-INDOL-3-YL)ETHYL]-N^2,N^4,N^4-TRIMETHYL-(2-NAPHTHYL)-6-(1-PIPERIDINYL)-2,4,6-PYRIMIDINETRIAMINE [Example 79]”, which Ki [1] is on record?
**A.** 3800 nM

**Q.** What about the Ki [2] of the same compound?
**A.** 1660 nM

**Q.** And the Ki [3, 5]?
**A.** 190 nM

**Q.** `Cc1ccc(/N=C2\C(=O)N(c3ccccc3)c3ccccc32)c(Cl)c1` [Example 286] was tested. Which Ki [3, 6] did it give?
**A.** 38 nM

**Q.** How did the Ki [3, 7] turn out when `CN(C)c1cc(Nc2ccc(Cl)cc2C(F)(F)F)nc(N2CCN(Cc3ccccc3)CC2)n1` [Example 239] was run?
**A.** 59 nM

**Q.** For `C[C@H]1CC2CC([C@@H]1Nc1cc(N(C)C)nc(Nc3ccccc3)n1)C2(C)C` (some centres unmarked) [Example 71], which Ki [2] is on record?
**A.** 944 nM

**Q.** And the Ki [3, 5]?
**A.** 72 nM

**Q.** `CN(C)c1cc(Nc2ccccc2Cl)nc(N2CCN(c3ccccn3)CC2)n1` [Example 195] was tested. Which Ki [3, 7] did it give?
**A.** 388 nM

**Q.** For `O=C1/C(=N\c2ccc(-c3cccc(C(F)(F)F)c3)cc2)c2ccccc2N1c1ccccc1` [Example 305, (3Z)-1-PHENYL-3-{[3′-(TRIFLUOROMETHYL)[1,1′-BIPHENYL]-4-YL]IMINO}-1,3-DIHYDRO-2H-INDOL-2-ONE], which Ki [3, 6] is on record?
**A.** 638 nM

**Q.** Which Ki [3, 7] does the source give for `CN(C)c1cc(NC23CC4CC(CC2C4)C3)nc(N2CCN(Cc3ccccc3)CC2)n1` [Example 137] here?
**A.** 124 nM

**Q.** `CN1C(=O)c2ccc(/N=C3\C(=O)N(c4ccccc4)c4ccccc43)cc2C1=O` [Example 110, 2-METHYL-5-[(2-OXO-1-PHENYL-1,2-DIHYDRO-3H-INDOL-3-YLIDENE)AMINO]-2H—ISOINDOLE-1,3(2H)-DIONE] was tested. Which Ki [3, 6] did it give?
**A.** 138 nM

**Q.** With `O=C1/C(=N\c2ccc(Oc3ccccc3)cc2)c2ccccc2N1c1ccsc1` [Example 268, 3Z)-3-[(4-PHENOXYPHENYL)IMINO]-1-(3-THIENYL)-1,3-DIHYDRO-2H-INDOL-2-ONE] as the compound, how does the Ki [3, 6] read?
**A.** 57 nM
